Assay results: patent US20240034761A1, “REGENERATION OF MAMMALIAN TISSUES USING SYNTHETIC IMMODULINS” (priority 2022, published 2024)
Marks after values point to notes of the source that are not given here. Each block holds one molecule with its values, some of them ahead of it. Square brackets hold non-standard residues; d marks the D form. Ends that are not written are not given here. Peptide text beside a SMILES is read from it.

Legend:
[1] = test system: THP1-Dual monocyte reporter cell line; experiment: Adjuvant effect of helper molecules on immX3 peptide potency in THP1-Dual assay; type: cell-based, human
Method: (§1) Mammalian cell differentiation assays employed the THP1-Dual monocyte reporter cell line (Invivogen Inc, San Diego, CA) seeded at 2×10e5 cells per well in 96-well plates and cultured at 37 degrees C. in RPMI-1640 growth medium plus 10% fetal bovine serum and 1% penicillin/streptomycin. Cells were subsequently treated for 24 hours with 100 ng/ml Phorbol 12-myristate 13-acetate (PMA protocol; Cayman Chemical Company, Ann Arbor, MI). Peptide (0.33 uM or 0.66 uM, as indicated) was then added, and incubation continued for an additional 24 hours. Culture supernatants were assayed for CCL22. Plates with adherent cells were washed with PBS and assayed for immunoreactivity of surface markers such as CD169, Clec9a or Clec12a using fuorescent tag- or biotin-labeled anti-human antibodies purchased from Miltenyi Biotec (Auburn, CA) and the secondary detection reagent recommended by the manufacturer.
The THP1-Dual cell differentiation assay was carried out as described above in Example 2, using immX3 peptide (330 nM) in all samples plus the indicated helper or inhibitor molecule. Molecules were purched from Cayman Chemical Company (Ann Arbor, MI) or Sigma Chemical Company (St. Louis, MO). AU=arbitrary ELISA units. **p<0.01.

[2] = test system: THP1-Dual monocyte reporter cell line; experiment: THP1-Dual myeloid cell differentiation assay (PMA protocol); type: cell-based, human; details: PMA 24 h, then peptide 0.33 uM or 0.66 uM 24 h; for CD169+ (AU): relative to immX3AVD = 100; for CCL22: culture supernatant
Method: as §1

[3] = PIP-binding membrane assay (Membrane Lipid Strips); parameters: key: —: −−− no binding; +++ strong binding; details: 400 ng peptide
Method: N-terminally biotinylated versions of the peptides listed below were used in various assays listed in the examples. For the two types of phosphatidylinositon phosphate (PIP)-binding assays, imm1-imm6 peptides were used.
In the PIP-binding membrane assay, 400 ng of each peptide was bound to Membrane Lipid Strips (Catalog # P-6002, Echelon Biosciences, Salt Lake City, UT) and developed according to the manufacturer's instructions. Binding to PIPs was as follows (−−− no binding; +++ strong binding): […]

[4] = test system: C2C12 myoblastic cell line; experiment: C2C12 myoblast differentiation, creatine kinase; type: cell-based; details: 0.66 uM peptide, 96 hours; helper none; relative to immX3AVD = 100
Method: Differentiation assays employed the C2C12 myoblastic cell line (ATCC, Manassas, VA) seeded at 2×10e5 cells per well in 96-well plates and cultured at 37 degrees C. in DMEM growth medium plus 10% fetal bovine serum and 1% penicillin/streptomycin. For differentiation, 10% fetal bovine serum was replaced with 2% horse serum. 0.66 uM peptide was then added, and incubation continued for an additional 96 hours. Plates with adherent cells were washed with PBS, lysed with Lytic-M buffer (Sigma Chemical Company, St. Louis, MO) and the lysates were assayed for creatine kinase using a kit purchased from Bioassay Systems (Cat. #ECPK-100, Hayward, CA). Effects were visually confirmed with microscopy tracking myotube formation. Results were expressed as units per milliliter relative to the control immX3AVD peptide, and p values were also calculated and shown relative to control immX3AVD peptide (** p<0.05 versus immX3AVD control; avg±SD).

[5] = immX3 peptide 330 nM plus helper at 2 uM
[6] = immX3 peptide 330 nM plus helper at 15 uM
[7] = immX3 peptide 330 nM plus helper at 1 mM
[8] = immX3 peptide 330 nM plus helper at 1 ug/ml
[9] = immX3 peptide 330 nM plus helper at 0.1 ug/ml

Molecule: CCCCCCCC(=O)c1c(O)cc(O)cc1CC(=O)OCC [Cytosporone B]
CD169 (AU) [1, 5]: 120.3 ± 6.4** AU

Molecule: O=C(O)CC1CC(c2ccccc2)=NO1 (stereo not shown) [GIT27]
CD169 (AU) [1, 5]: 166.5 ± 34.1** AU

Molecule: C[C@H]1C[C@H]2[C@@H]3CCC4=CC(=O)C=C[C@]4(C)[C@@]3(F)[C@@H](O)C[C@]2(C)[C@@]1(O)C(=O)CCl [Clobetasol]
CD169 (AU) [1, 5]: 98.5 ± 5.5 AU

Molecule: CC(C)[C@H](NC(=O)[C@H](Cc1ccccc1)NC(=O)[C@H](Cc1c[nH]c2ccccc12)NC(=O)[C@H](CS)NC(=O)[C@H](Cc1ccccc1)NC(=O)CNC(=O)[C@H](CCCNC(=N)N)NC(=O)[C@H](CCCCN)NC(=O)[C@H](CCCNC(=N)N)NC(=O)CNC(=O)[C@H](CCCCN)NC(=O)[C@H](CO)NC(=O)[C@@H]1CCCN1C(=O)[C@H](CCCNC(=N)N)NC(=O)[C@H](CS)NC(=O)[C@H](CCC(N)=O)NC(=O)[C@H](CCCCN)NC(=O)[C@H](CCCCN)NC(=O)[C@H](CCCCN)NC(=O)[C@H](Cc1ccc(O)cc1)NC(=O)[C@H](Cc1ccccc1)NC(=O)CNC(=O)[C@H](CCCCN)NC(=O)[C@@H](N)CCCCN)C(=O)N[C@@H](CO)C(=O)O [immX3FVS] (H-KKGFYKKKQCRPSKGRKRGFCWFVS-OH)
CD169+ (AU) [2]: 109.4 ± 4.5 AU
CCL22 [2]: 251.3 ± 5.8 pg/mL

Molecule: CN1c2ccc([N+](=O)[O-])cc2N=C(c2ccc(C(=O)O)cc2)c2cc3c(cc21)C(C)(C)CCC3(C)C [HX531]
CD169 (AU) [1, 5]: 90.4 ± 6.2 AU

Molecule: Nc1nc2c(ncn2[C@@H]2O[C@@H]3COP(=O)(O)O[C@H]4[C@@H](O)[C@H](n5cnc6c(N)ncnc65)O[C@@H]4COP(=O)(O)O[C@@H]2[C@@H]3O)c(=O)[nH]1 [2′3′-cGAMP]
CD169 (AU) [1, 6]: 168.5 ± 10.9** AU

Molecule: C=C1/C(=C\C=C2/CCC[C@]3(C)[C@@H]([C@H](C)CCCC(C)(C)O)CC[C@@H]23)C[C@@H](O)C[C@@H]1O [Calcitriol]
CD169 (AU) [1, 5]: 102.0 ± 11.3 AU

Molecule: CC(=O)S[C@@H]1CC2=CC(=O)CC[C@]2(C)[C@H]2CC[C@@]3(C)[C@@H](CC[C@@]34CCC(=O)O4)[C@H]12 [Spironolactone]
CD169 (AU) [1, 5]: 120.1 ± 10.5** AU

Molecule: CN1C[C@H](C(=O)N[C@]2(C)O[C@@]3(O)[C@@H]4CCCN4C(=O)[C@H](Cc4ccccc4)N3C2=O)C[C@@H]2c3cccc4[nH]cc(c34)C[C@H]21 [Dihydroergotamine]
CD169 (AU) [1, 5]: 170.3 ± 20.7** AU

Molecule: Cc1cc2c(cc1C1(c3ccc(C(=O)O)cn3)CC1)C(C)(C)CCC2(C)C [LG100268]
CD169 (AU) [1, 5]: 76.8 ± 11.9** AU

Molecule: O=C(CO)[C@@H](O)[C@@H](O)[C@H](O)[C@H](O)CO [D-mannoheptulose]
CD169 (AU) ([1]; immX3 peptide 330 nM plus helper at 50 uM): 140.8 ± 12.4** AU

Molecule: C[C@H](O)C(=O)O [L-lactate]
CD169 (AU) ([1]; immX3 peptide 330 nM plus helper at 300 uM): 121.1 ± 5.6** AU

Molecule: Sc1ncnc2nc[nH]c12 [6-mercaptopurine]
CD169 (AU) [1, 5]: 104.9 ± 4.0 AU

Molecule: KKGFYKKKQCRPSKGRKRGFCW(dA)VD (KKGFYKKKQCRPSKGRKRGFCW[dA]VD; cysteine pairing not given here) [immX3dAVD]
CD169+ (AU) [2]: 104.3 ± 6.1 AU
CCL22 [2]: 247.3 ± 16.1 pg/mL

Molecule: O=C(O)/C=C/C(=O)O [L-fumarate]
CD169 (AU) [1, 7]: 101.5 ± 7.3 AU

Molecule: C=C(c1ccc(C(=O)O)cc1)c1cc2c(cc1C)C(C)(C)CCC2(C)C [Bexarotene]
CD169 (AU) [1, 5]: 96.9 ± 6.8 AU

Molecule: Heparin
CD169 (AU) [1, 8]: 34.1 ± 2.9** AU

Molecule: OC[C@H]1O[C@H](OC[C@H]2O[C@H](O[C@]3(CO)O[C@H](CO)[C@@H](O)[C@@H]3O)[C@H](O)[C@@H](O)[C@@H]2O)[C@H](O)[C@@H](O)[C@H]1O [D-raffinose]
CD169 (AU) [1, 7]: 111.9 ± 4.0** AU

Molecule: Nc1nc2c(ncn2[C@@H]2O[C@@H]3COP(=O)(O)O[C@H]4[C@@H](O)[C@H](n5cnc6c(=O)[nH]c(N)nc65)O[C@@H]4COP(=O)(O)O[C@H]3[C@H]2O)c(=O)[nH]1 [Cyclic-di-GMP]
CD169 (AU) [1, 6]: 142.9 ± 9.7** AU

Molecule: Oc1ccc(C(c2c[nH]c3ccccc23)c2c[nH]c3ccccc23)cc1 [C-DIM8]
CD169 (AU) [1, 5]: 91.0 ± 24.8 AU

Molecule: Leptin
CD169 (AU) [1, 8]: 103.3 ± 11.6 AU

Molecule: CC(=O)/C=C1\C(=O)N(C)c2ccccc21 [Supercinnamaldehyde]
CD169 (AU) [1, 5]: 159.7 ± 16.6** AU

Binding to Phosphatidylinositol [3]: —
Binding to PtdIns(3,4,5)P [PIP3] [3]: —
Binding to PtdIns(4)P [PIP1] [3]: —
Binding to PtdIns(4,5)P [PIP2] [3]: —
Molecule: CSCC[C@H](NC(=O)[C@H](CO)NC(=O)[C@@H](NC(=O)[C@H](CCC(=O)O)NC(=O)[C@H](CS)NC(=O)[C@H](CCC(N)=O)NC(=O)[C@H](CCCNC(=N)N)NC(=O)[C@H](CO)NC(=O)[C@H](Cc1c[nH]cn1)NC(=O)[C@H](Cc1ccc(O)cc1)NC(=O)[C@H](Cc1ccccc1)NC(=O)CNC(=O)[C@H](CC(N)=O)NC(=O)[C@@H](N)CCCCN)[C@@H](C)O)C(=O)N[C@@H](CC(=O)O)C(=O)NCC(=O)N[C@@H](CCC(=O)O)C(=O)N[C@@H](C)C(=O)NCC(=O)N[C@@H](CC(C)C)C(=O)N[C@@H](CS)C(=O)N[C@@H](Cc1c[nH]c2ccccc12)C(=O)O [imm1] (H-KNGFYHSRQCETSMDGEAGLCW-OH)
CD169+ (AU) [2]: 3.1 ± 2.2 AU

Molecule: GM-CSF
CD169 (AU) [1, 9]: 147.0 ± 15.3** AU

Molecule: HP-B-cyclodextrin
CD169 (AU) [1, 7]: 121.1 ± 4.6** AU

Molecule: O=C(NCc1ccco1)c1ccc2c(c1)N(Cc1c(F)cccc1Cl)C(=O)CS2 [Peptide G10, G10]
CD169 (AU) [1, 5]: 143.4 ± 17.8** AU

Molecule: Holotransferrin [Holotransferrin (Tf)]
CD169 (AU) ([1]; immX3 peptide 330 nM plus helper at 0.8 ug/ml): 126.8 ± 9.3** AU

Molecule: Clc1ccc(C(c2c[nH]c3ccccc23)c2c[nH]c3ccccc23)cc1 [C-DIM12]
CD169 (AU) [1, 5]: 119.0 ± 3.7** AU

Molecule: Hyaluronan [Hyaluronan(HMW-HA)]
CD169 (AU) ([1]; immX3 peptide 330 nM plus helper at 0.6 ug/ml): 110.5 ± 10.2 AU

Molecule: O=C1CCc2cc(OCCCCc3nnnn3C3CCCCC3)ccc2N1 [Cilostazol]
CD169 (AU) [1, 5]: 99.4 ± 27.7 AU

Molecule: NGLLKIKKGFYKKKQCRPSKGRKRGFCWAVD [immX3K4e + 1]
Creatine Kinase Act. [4]: 178.4 ± 7.6** units per milliliter
CD169+ (AU) [2]: 128.4 ± 1.4 AU

Molecule: CN1c2ccccc2N=C(c2ccc(C(=O)O)cc2)c2cc3c(cc21)C(C)(C)CCC3(C)C [HX600]
CD169 (AU) [1, 5]: 110.5 ± 19.0 AU

B1: CSF1 (protein, UniProt P09603 33-554, looked up)
Macrophage colony-stimulating …: EEVSEYCSHMIGSGHLQSLQRLIDSQMETSCQITFEFVDQEQLKDPVCYLKKAFLLVQDIMEDTMRFRDNTPNAIAIVQLQELSLRLKSCFTKDYEEHDKACVRTFYETPLQLLEKVKNVFNETKNLLDKDWNIFSKNCNNSFAECSSQDVVTKPDCNCLYPKAIPSSDPASVSPHQPLAPSMAPVAGLTWEDSEGTEGSSLLPGEQPLHTVDPGSAKQRPPRSTCQSFEPPETPVVKDSTIGGSPQPRPSVGAFNPGMEDILDSAMGTNWVPEEASGEASEIPVPQGTELSPSRPGGGSMQTEPARPSNFLSASSPLPASAKGQQPADVTGTALPRVGPVRPTGQDWNHTPQKTDHPSALLRDPPEPGSPRISSLRPQGLSNPSTLSAQPQLSRSHSSGSVLPLGELEGRRSTRDRRSPAEPEGGPASEGAARPLPRFNSVPLTDTGHERQSEGSFSPQLQESVFHLLVPSVILVLLAVGGLLFYRWRRRSHQEPQRADSPLEQPEGSPLTQDDRQVELPV
notes: Growth factor class
CD169 (AU) [1, 9]: 108.0 ± 32.3 AU
